According to patent US20170306409A1, “CANCER PATIENT SELECTION FOR ADMINISTRATION OF WNT SIGNALING INHIBITORS USING RNF43 MUTATION STATUS” (NOVARTIS AG, priority 2012, published 2017):

Key:
Type in all cases: cell-based, human
[1] = tested on: RNF43 mRNA, YAPC cells; assay: quantitative RT-PCR gene expression analysis; conditions: 3 μM of IWP2
Description: FIG. 4(a) is a bar graph showing that the depletion of β-catenin decreases mRNA level of AXIN2 and RNF43. Cells were treated with siRNA, and relative mRNA levels of indicated genes were analyzed by quantitative RT-PCR. […] YAPC cells were treated with 3 μM of IWP2 or 1 μM of LGK974, and subjected to gene expression analysis by quantitative RT-PCR.
(§1) For reverse transcription and quantitative PCR (qPCR), total RNA was extracted from cells or tumors using the RNeasy Plus Mini Kit (Qiagen). 1 μg of RNA were reverse transcribed with Taqman Reverse Transcription Reagents (Applied Biosystems) according to the manufacturer's instruction. Quantitative PCR was performed in 12 μl reactions consisting of 0.6 μl of 20× Taqman probe and PCR primer mix, 6 μl 2× Taqman FAST Advanced Master Mix (Applied Biosystems), and 5.4 μl diluted cDNA template. The thermocycling conditions utilized were 20 seconds at 95° C., followed by 40 cycles of 1 second at 95° C. and 20 seconds at 60° C. All experiments were performed in quadruplicates. Gene expression analysis was performed using the comparative ΔΔCT method and normalized with the housekeeping gene GUSB or 18S. The Taqman probes were purchased from Applied Biosystems.
Consistent with this observation, treatment of Porcupine inhibitor IWP2 or LGK974 increased the cell surface level of Frizzled and decreased the mRNA levels of AXIN2 and RNF43. See, FIG. 4(b). […]

[2] = tested on: cell surface Frizzled (FZD), YAPC cells; assay: flow cytometry of membrane Frizzled (pan-Frizzled antibody 18R5)
Description: YAPC cells were transfected with indicated siRNA, and membrane levels of Frizzled were analyzed by flowcytometry using pan-Frizzled antibody 18R5.
For flow cytometric analysis, cells were harvested using trypsin-free cell dissociation buffer (Invitrogen) and resuspended in FACS buffer (PBS with 1% BSA and 0.02% sodium azide). After blocking, cells were incubated with anti-pan-Frizzled (18R5) antibody for 1 hour at 4° C., followed by incubation with Allophycocyanin (APC)-conjugated goat anti-human IgG secondary antibody. After extensive washes using FACS buffer, cells were stained with propidium iodide (PI) and subjected to multi-channel analysis using BD LSR II flow cytometer.
(§2) Consistent with this observation, treatment of Porcupine inhibitor IWP2 or LGK974 increased the cell surface level of Frizzled and decreased the mRNA levels of AXIN2 and RNF43. See, FIG. 4(b). […] YAPC cells were treated with 3 μM of IWP-2 or 1 μM of LGK974, and subjected to flowcytometry analysis for membrane Frizzled expression.

[3] = tested on: Axin2, YAPC; assay: Axin2 qPCR assay (pathway inhibition); conditions: YAPC cells; 3 μM of IWP2
Description: as §1, §2

[4] = tested on: STF Wnt reporter, YAPC-STF cells; assay: SuperTOPFlash (STF) luciferase reporter assay; conditions: absence of exogenous Wnt3a, LGK974 or IWP-2
Description: For the luciferase reporter assay, YAPC-STF reporter cells were transfected with siRNA and treated with Wnt3a conditioned medium or compound where applicable. STF luciferase assays were performed using BrightGlo Luciferase Assay kits (Promega) according to the manufacturer's instructions.
To construct pancreatic cell lines expressing STF reporter, HEK293 cells were grown in medium recommended by ATCC supplemented with 10% FBS. Retrovirus or lentivirus was produced from HEK293 cells by standard virus packaging procedure using FuGENE 6 (Roche) transfection reagent. Pancreatic cell lines expressing STF reporter, RNF43 constructs, or DOX-inducible β-catenin shRNA were generated by viral infection and drug selection.
Depletion of RNF43 induces Dvl phosphorylation and β-catenin stabilization. […] RNF43 siRNA-induced STF activity in the absence of exogenous Wnt3a is inhibited by LGK974 and a previously known Porcupine inhibitor IWP-2. Chen B et al. (2009) Nat. Chem. Biol. 5(2):100-7. See, FIG. 3(b), showing that this activity is dependent on the expression of endogenous Wnt proteins.

In the case of `Cc1ccc2nc(NC(=O)CSc3nc4c(c(=O)n3-c3ccccc3)SCC4)sc2c1` [IWP-2, reference compound], the “mRNA level of RNF43” value [1] is reported as “decreased”, the “Median FZD intensity in FACS” value ([2]; 3 μM of IWP-2, DMSO 721) is reported as 1754 and the “Median FZD intensity in FACS” value ([2]; 3 μM of IWP-2, DMSO 721, listed as IWP2) is reported as “increased”. The “mRNA level of AXIN2” value [3] was “decreased” and the “RNF43 siRNA-induced STF activity” value [4] was “inhibited”.
